Experiments:
[1] = molecular target: T1, Bruton's Tyrosine Kinase (Btk) (Homo sapiens, UniProt Q06187); assay: Determination of IC50 of Bruton's Tyrosine Kinase (Btk) inhibition, 33P filtration assay; type: biochemical; details: His-tagged full-length Btk, 100 μM ATP
T1 construct: 5-10 nM Btk enzyme (His-tagged, full-length); His tag
Excerpt: Determination of IC50 of Bruton's Tyrosine Kinase (Btk) Inhibition
The assay is a capture of radioactive ^33P phosphorylated product through filtration. The interactions of Btk, biotinylated SH2 peptide substrate (Src homology), and ATP lead to phosphorylation of the peptide substrate. Biotinylated product is bound streptavidin sepharose beads. All bound, radiolabeled products are detected by scintillation counter.
Plates assayed are 96-well polypropylene (Greiner) and 96-well 1.2 μm hydrophilic PVDF filter plates (Millipore). Concentrations reported here are final assay concentrations: 10-100 μM compounds in DMSO (Burdick and Jackson), 5-10 nM Btk enzyme (His-tagged, full-length), 30 μM peptide substrate (Biotin-Aca-[…]-NH2), 100 μM ATP (Sigma), 8 mM imidazole (Sigma, pH 7.2), 8 mM glycerol-2-phosphate (Sigma), 200 μM EGTA (Roche Diagnostics), 1 mM MnCl2 (Sigma), 20 mM MgCl2 (Sigma), 0.1 mg/ml BSA (Sigma), 2 mM DTT (Sigma), 1 μCi ^33P ATP (Amersham), 20% streptavidin sepharose beads (Amersham), 50 mM EDTA (Gibco), 2 M NaCl (Gibco), 2 M NaCl w/1% phosphoric acid (Gibco), microscint-20 (Perkin Elmer).
IC50 determinations are calculated from 10 data points per compound utilizing data produced from a standard 96-well plate assay template. One control compound and seven unknown inhibitors were tested on each plate and each plate was run twice. Typically, compounds were diluted in half-log starting at 100 μM and ending at 3 nM. The control compound was staurosporine. Background was counted in the absence of peptide substrate. Total activity was determined in the presence of peptide substrate. The following protocol was used to determine BTK inhibition.
1) Sample preparation: The test compounds were diluted at half-log increments in assay buffer (imidazole, glycerol-2-phosphate, EGTA, MnCl2, MgCl2, BSA).
2) Bead preparation • a.) rinse beads by centrifuging at 500 g • b.) reconstitute the beads with PBS and EDTA to produce a 20% bead slurry
3) Pre-incubate reaction mix without substrate (assay buffer, DTT, ATP, ^33P ATP) and mix with substrate (assay buffer, DTT, ATP, ^33P ATP, peptide substrate) 30° C. for 15 min.
4) To start assay, pre-incubate 10 μL BTK in enzyme buffer (imidazole, glycerol-2-phosphate, BSA) and 10 μL of test compounds for 10 min at RT.
5) Add 30 μL reaction mixture without or with substrate to BTK and compounds.
6) Incubate 50 μL total assay mix for 30 min at 30° C.
7) Transfer 40 μL of assay to 150 μL bead slurry in filter plate to stop reaction.
8) Wash filter plate after 30 min, with following steps • a. 3 ×250 μL NaCl • b. 3×250 μL NaCl containing 1% phosphoric acid • c. 1×250 μL H2O
9) Dry plate for 1 h at 65° C. or overnight at RT
10) Add 50 μL microscint-20 and count ^33P cpm on scintillation counter.
Calculate percent activity from raw data in cpm percent activity=(sample−bkg)/(total activity−bkg)×100

Ramos cells = assay: Inhibition of B-cell activation, B cell FLIPR assay in Ramos cells; type: cell-based; details: Homo sapiens, anti-IgM stimulated intracellular calcium increase
Excerpt: Inhibition of B-cell Activation—B Cell FLIPR Assay in Ramos Cells
The B cell FLIPR assay is a cell based functional method of determining the effect of potential inhibitors of the intracellular calcium increase from stimulation by an anti-IgM antibody. Ramos cells (human Burkitt's lymphoma cell line. ATCC-No. CRL-1596) were cultivated in Growth Media (described below). One day prior to assay, Ramos cells were resuspended in fresh growth media (same as above) and set at a concentration of 0.5×10^6/mL in tissue culture flasks. On day of assay, cells were counted and set at a concentration of 1×10^6/mL in growth media supplemented with 1 μM FLUO-3 AM(TefLabs Cat-No. 0116, prepared in anhydrous DMSO and 10% Pluronic acid) in a tissue culture flask, and incubated at 37° C. (4% CO2) for 1 h. To remove extracellular dye, cells were collected by centrifugation (5 min, 1000 rpm), resuspended in FLIPR buffer (described below) at 1×10^6 cells/mL and then dispensed into 96-well poly-D-lysine coated black/clear plates (BD Cat-No. 356692) at 1×10^5 cells per well. Test compounds at seven concentrations ranging from 100 μM to 0.03 μM were added, and allowed to incubate with cells for 30 min at RT. Ramos cell Ca^2+ signaling was stimulated by the addition of 10 μg/mL anti-IgM (Southern Biotech, Cat-No. 2020-01) and measured on a FLIPR (Molecular Devices, captures images of 96 well plates using a CCD camera with an argon laser at 480 nm excitation).
Growth Medium: RPMI 1640 medium with L-glutamine (Invitrogen, Cat-No. 61870-010), 10% Fetal Bovine Serum (FBS, Summit Biotechnology Cat-No. FP-100-05); 1 mM Sodium Pyruvate (Invitrogen Cat. No. 11360-070).
FLIPR buffer: HBSS (Invitrogen, Cat-No. 141175-079),2 mM CaCl2 (Sigma Cat-No. C-4901), HEPES (Invitrogen, Cat-No. 15630-080), 2.5 mM Probenecid (Sigma, Cat-No. P-8761), 0.1% BSA (Sigma, Cat-No. A-7906), 11 mM Glucose (Sigma, Cat-No. G-7528).
In order to achieve the highest final assay concentration of 100 μM, 24 μL of 10 mM compound stock solution (made in DMSO) is added directly to 576 μL of FLIPR buffer. The test compounds are diluted in FLIPR Buffer (using Biomek 2000 robotic pipettor) resulting in the following dilution scheme: vehicle, 1.00×10^−4 M, 1.00×10^−5, 3.16×10^−6, 1.00×10^−6, 3.16×10^−7, 1.00×10^−7, 3.16×10^−8.
Intracellular increases in calcium were reported using a max-min statistic (subtracting the resting baseline from the peak caused by addition of the stimulatory antibody using a Molecular Devices FLIPR control and statistic exporting software. The IC50 was determined using a non-linear curve fit (GraphPad Prism software). Representative results are in Table 1.

[2] = molecular target: T2, Spleen Tyrosine Kinase (SYK) aa 360-635 (Homo sapiens, UniProt P43405); assay: Determination of IC50 of Spleen Tyrosine Kinase (SYK) inhibition, 33P kinase assay; type: biochemical; details: recombinant human SYK360-635, 20 μM ATP; read-out: IC50 (μM) SYK Assay
T2 construct: truncated construct of Spleen Tyrosine Kinase aa 360-635; made in house
Experimental: Determination of IC50 of Spleen Tyrosine Kinase (SYK) Inhibition
The SYK kinase assay is a standard kinase assay adapted to a 96 well plate format. This assay is performed in 96-well format for IC50 determination with 8 samples which represented 10 half log dilutions and a 40 μL reaction volume. The assay measures the incorporation of radiolabeled ^33P γATP into an N-terminally biotinylated peptide substrate, derived from naturally occurring phosphoacceptor consensus sequence (Biotin-11aa DY*E). Phosphorylated products were detected upon termination of reactions with EDTA and the addition of Streptavidin coated beads. • Assay plates: 96-well MultiScreen 0.65 um filter plates (Millipore Cat. No.: MADVNOB10) • Streptavidin coated beads: Streptavidin Sepharose TM, suspension 5.0 mL, in 50 mM EDTA/PBS diluted (1:100), (Amersham, Cat. No.: 17-5113-01) • Compounds: 10 mM in 100% dimethylsulfoxide (DMSO), final conc.: compound 0.003-100 uM in 10% DMSO • Enzyme: SYK RPA purified, truncated construct of Spleen Tyrosine Kinase aa 360-635, stock solution 1 mg/mL, MW: 31.2 KDa, final conc.:0.0005 μM. • Peptide 1: biotinylated peptide is derived from a naturally occurring phosphor-acceptor consensus sequence (Biotin-[…]), special order from QCB, stock solution 20 mM, final conc.: 5.0 μM. • ATP: Adenosine-5′-triphosphate 20 mM, (ROCHE Cat. No.:93202720), final concentration: 20 μM • Buffer: HEPES: 2-Hydroxyethyl piperazine-2-ethanesulfonic acid (Sigma, Cat. No.: H-3375) final concentration: 50 mM HEPES pH7.5 • BSA: Bovine Serum Albumin Fraction V, fatty acid free (Roche Diagnostics GmbH, Cat. No. 9100221) diluted to a final concentration of 0.1% • EDTA: EDTA stock solution 500 mM, (GIBCO, Cat. No.: 15575-038) final concentration: 0.1 mM • DTT: 1,4-Dithiothreitol (Roche Diagnostics GmbH, Cat. No.: 197777), final conc.: 1 mM • MgCl2×6H2O: MERCK, Cat. No.: 105833.1000, final concentration: 10 mM • Assay Dilution Buffer (ADB): 50 mM HEPES, 0.1 mM EGTA, 0.1 mM Na Vanadate, 0.1 mM β-glycerophosphate, 10 mM MgCl2, 1 mM DTT, 0,1% BSA, pH 7.5 • Bead wash buffer: 10 g/L PBS (Phosphate buffered saline) with 2M NaCl+1% phosphoric acid Experimental Method:
In 40 μL volume, 26 μL of ADB diluted, purified recombinant human SYK360-635 [0.5 nM] was mixed with 4 μL of 10× concentrations of the test compounds, [usually 100 μM-0.003 μM] in [10%] DMSO and the mixture was incubated for 10 min at RT.
The kinase reaction was initiated by the addition of 10 μL 4× substrate cocktail containing the DYE peptide substrate [0 or 5 μM], ATP [20 μM] and […] [2 μCi/rxn]. After incubation at 30° C. for 15 min, the reaction was terminated by the transfer of 25 μL of the reaction sample to a 96 well 0.65 um Millipore MADVNOB membrane/plate containing 200 μL 5 mM EDTA and 20% Streptavidine coated beads in PBS.
The unbound radionucleotides were washed under vacuum with 3×250 μL 2M NaCl; 2×250 μL 2M NaCl+1% phosphoric acid; 1×250 μL H2O. After the last wash membrane/plates were transferred to an adaptor plate, heat dried for 15 min at 60° C., and 50 μL scintillation cocktail was added to each well and 4 h later the amount of radioactivity was counted in a top counter.
The IC50 was calculated using a non-linear curve fit with XLfit software (ID Business Solution Ltd., Guilford, Surrey, UK). […] Representative results are in Table 1.

T1 sequence (Q06187 whole entry): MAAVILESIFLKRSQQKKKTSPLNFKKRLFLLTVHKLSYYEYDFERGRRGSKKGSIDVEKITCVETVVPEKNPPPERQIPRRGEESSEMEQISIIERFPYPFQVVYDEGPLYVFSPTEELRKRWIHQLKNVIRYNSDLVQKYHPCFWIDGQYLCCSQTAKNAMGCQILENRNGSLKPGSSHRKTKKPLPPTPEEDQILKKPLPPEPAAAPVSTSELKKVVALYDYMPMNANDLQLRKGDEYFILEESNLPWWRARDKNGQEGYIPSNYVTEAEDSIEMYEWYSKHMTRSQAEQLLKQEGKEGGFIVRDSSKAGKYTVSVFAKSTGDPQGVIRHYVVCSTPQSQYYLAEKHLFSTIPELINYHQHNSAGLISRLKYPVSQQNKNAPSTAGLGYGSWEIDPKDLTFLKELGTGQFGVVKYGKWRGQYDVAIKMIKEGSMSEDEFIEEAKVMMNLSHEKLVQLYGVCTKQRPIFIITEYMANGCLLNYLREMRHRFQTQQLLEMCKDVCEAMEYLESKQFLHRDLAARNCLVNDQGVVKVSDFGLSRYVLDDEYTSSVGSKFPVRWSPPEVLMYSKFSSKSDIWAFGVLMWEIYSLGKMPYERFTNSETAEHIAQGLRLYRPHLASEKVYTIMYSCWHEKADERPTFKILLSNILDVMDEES

SMILES | IC50 [1] | IC50 (Ramos cells) | IC50 [2]
Cc1cc(Nc2nn(C(C)C)c(=O)c3cc(N(C)C)ccc23)n[nH]1 [Example F-6, 2-Isopropyl-4-(5-methyl-1H-pyrazol-3-ylamino)-7-dimethylamino-2H-phthalazin-1-one] | 0.468 µM | 1.13 µM | –
Cc1cc(Nc2nn(C(C)C)c(=O)c3cc(OCCCS(=O)(=O)N(C)C)ccc23)n[nH]1 [Example ZD-3, 3-[3-Isopropyl-1-(5-methyl-1H-pyrazol-3-ylamino)-4-oxo-3,4-dihydro-phthalazin-6-yloxy]-propane-1-sulfonic acid dimethylamide] | 0.86 µM | – | 3.02 µM
Cc1cc(Nc2nn(C(C)C)c(=O)c3cc(CS(C)(=O)=O)ccc23)n[nH]1 [Example ZI-2, 2-Isopropyl-7-methanesulfonylmethyl-4-(5-methyl-1H-pyrazol-3-yl-amino)-2H-phthalazin-1-one] | 0.44 µM | – | 0.894 µM

Reference: patent publication US7501410B2, “Methods of inhibiting BTK and SYK protein kinases” (Roche Palo Alto LLC, priority 2006, dated 2009)
